Our source for the IC50 values is BindingDB's records for patent US20240025892 (The General Hospital, 2024).

For orientation: IC50 means the concentration at which inhibition is half-maximal.

Structures are written as SMILES.

This assay deals with Serine/threonine-protein kinase SIK2 (Homo sapiens, UniProt Q9H0K1). Put plainly: In Vitro SIK2 Kinase Assay. On the procedure: Assays were performed in base reaction buffer (20 mM Hepes (pH 7.5), 10 mM MgCl2, 1 mM EGTA, 0.02% Brij35, 0.02 mg/mL BSA, 0.1 mM Na3VO4, 2 mM DTT, 1% DMSO). Compounds were dissolved in 100% DMSO in a 10 mM stock. Serial dilution was conducted by Integra Viaflo Assist in DMSO. […] The substrate used was pAMARA at a concentration of 0.2 mg/mL. Kinase assays were supplemented with 2 mM Mn2+, and 1 μM ATP was added. Assays were performed for 20 minutes at room temperature, after which time 33P-ATP (10 μCi/μL) was added followed by incubation for another 120 minutes at room temperature. Thereafter, radioactivity incorporated into the […] peptide substrate was detected by filter-binding method. Kinase activity data were expressed as the percent remaining kinase activity in test samples compared to DMSO reactions. IC50 values and curve fits were obtained using Prism (GraphPad Software).
Serine/threonine-protein kinase SIK2, sequence (Q9H0K1 whole entry): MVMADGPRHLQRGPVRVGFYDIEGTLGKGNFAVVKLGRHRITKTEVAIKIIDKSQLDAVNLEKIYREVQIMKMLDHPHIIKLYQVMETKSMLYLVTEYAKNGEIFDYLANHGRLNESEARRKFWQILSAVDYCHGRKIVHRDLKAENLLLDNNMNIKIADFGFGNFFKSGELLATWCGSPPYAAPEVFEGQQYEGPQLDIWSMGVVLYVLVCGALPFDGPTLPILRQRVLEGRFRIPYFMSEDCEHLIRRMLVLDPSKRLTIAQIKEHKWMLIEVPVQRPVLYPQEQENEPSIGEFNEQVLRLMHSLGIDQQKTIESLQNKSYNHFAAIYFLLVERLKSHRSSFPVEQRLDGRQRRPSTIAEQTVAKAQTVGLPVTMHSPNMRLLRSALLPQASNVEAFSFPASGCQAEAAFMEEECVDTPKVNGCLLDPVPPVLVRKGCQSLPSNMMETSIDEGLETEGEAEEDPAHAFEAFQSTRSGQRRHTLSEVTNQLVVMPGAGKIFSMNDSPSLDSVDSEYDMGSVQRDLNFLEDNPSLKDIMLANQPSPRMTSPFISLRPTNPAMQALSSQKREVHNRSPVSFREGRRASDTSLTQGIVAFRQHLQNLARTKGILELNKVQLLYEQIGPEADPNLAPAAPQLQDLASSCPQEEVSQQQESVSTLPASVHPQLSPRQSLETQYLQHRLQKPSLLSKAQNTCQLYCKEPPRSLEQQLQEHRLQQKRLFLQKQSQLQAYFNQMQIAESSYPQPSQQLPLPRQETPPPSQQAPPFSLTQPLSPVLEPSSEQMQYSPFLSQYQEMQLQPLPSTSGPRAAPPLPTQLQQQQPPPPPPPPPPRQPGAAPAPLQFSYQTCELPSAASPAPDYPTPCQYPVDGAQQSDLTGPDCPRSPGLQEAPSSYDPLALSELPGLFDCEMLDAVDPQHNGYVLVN

Consider `N#Cc1ccc(-n2cnc3cc(C(=O)NCc4cccnc4)ccc32)cc1` [US20240025892, Example 32], for which the IC50 was found to be 148 nM.
